System: A2AR
Experiment: Affinity MS assay/screen with purified immobilized receptor
Format: binding
Conditions: 480-mix cocktails

CCNC(=O)[C@H]1O[C@@H](n2cnc3c(NCC(c4ccccc4)c4ccccc4)nc(C(=O)NCCNC(=O)NC4CCN(c5ccccn5)CC4)nc32)[C@H](O)[C@@H]1O [UK-432,097]
hit detection/selection in 480-mix screens: detected in all cocktails

Source: publication PMC6669887 (Analytical chemistry, 2019)
